Key:
Format in all cases: cell-based, human
HCT116 cells [1] = experiment: γ-H2AX focus formation, immunofluorescence and confocal microscopy
Protocol: A deficient DNA damage checkpoint is expected to increase DNA damage. γ-H2AX foci are considered to be sensitive indicators of double strand breaks (DSB). We looked for γ-H2AX focus formation after etoposide phosphate (VP16®) treatment and monitored the reversibility post-VP16 washout.
The cells were seeded in 4-well or 8-well culture slides. After treatment, cells were fixed with 3.7% paraformaldehyde in PBS and permeabilized with 0.2% Triton-X100. Cells were sequentially incubated with primary antibodies (see above under “Protein Analysis and Generation of Anti-RPS27L Antibody”) and Alexa Fluor 488 or Alexa Fluor 546-conjugated secondary antibodies (Invitrogen) for 1 hour each and mounted in Fluorsave (Merck) mounting medium. DRAQ5 (Biostats, UK) was diluted in mounting medium for nuclear staining. The stained cells were examined by Zeiss LSM510 confocal microscopy.

RPS27L protein [2] = experiment: Western blot of RPS27L protein in U2OS, SH-SY5Y and Saos-2 cells; conditions: U2OS and SH-SY5Y (p53 wild type), Saos-2 (p53-deficient); VP16 (10 μM), ADR (1 μM), 5-FU (375 μM)
Protocol: (§1) To investigate whether the p53-induced increase in RPS27L mRNA also gives rise to the increased protein levels, immunoblot analysis of p53 wild-type and p53 null HCT116 cells treated with ADR, 5-FU or nutlin-3, a small molecule MDM2 antagonist that directly activates p53 (Vassilev, L. T., Vu, B. T., et al. (2004) “In vivo activation of the p53 pathway by small-molecule antagonists of MDM2” Science, vol. 303, p. 844-848) was performed. […] To extend this observations to other cell lines and to other p53 stimuli, U2OS (human osteosarcoma cell line) and SH-SY5Y (human neuroblastoma cell line) cells (p53 wild type) as well as Saos-2 cells (human osteosarcoma cell line, p53-deficient) were treated with ADR, etoposide phosphate (VP16®) and 5-FU (FIG. 2B). […] Obviously, 5-FU treatment activates a posttranslational mechanism that causes RPS27L protein downregulation in spite of the increased mRNA expression.
(§2) Cells were harvested and lysed with RIPA buffer (50 mM Tris-HCl, pH7.4, 1 mM EDTA, 150 mM NaCl, 1% Nonidet P-40, 0.5% sodium deoxycholate and proteinase inhibitors). The lysates were clarified by centrifugation at 16,000×g for 15 minutes at 4° C. Protein concentrations were determined with the Bradford Protein Assay Kit (Bio-Rad). 20-50 μg protein samples were separated by SDS-PAGE, transferred onto an Immobilon membrane (Millipore) and blotted with antibodies. Anti-p53 and anti-p21 antibodies were from Santa Cruz; anti-MDM2 and anti-Puma antibodies were from Merck. The rabbit polyconal antibody to RPS27L was raised against a 14 amino acid peptide from human RPS27L (SEQ ID NO: 2: LHPSLEEEKKKHKK).

RPS27L protein [3] = experiment: Western blot of RPS27L protein levels in HCT116 cells; conditions: ADR (1 μM), 5-FU (375 μM), nutlin-3 (10 μM)
Protocol: as §1, §2

p53 and p21 = experiment: Western blot of p53 and p21 protein levels in HCT116 cells; conditions: ADR (1 μM), 5-FU (375 μM), nutlin-3 (10 μM)
Protocol: as §1, §2

RPS27L = RPS27L gene silencing by RNA interference, RT-PCR; conditions: HCT116 cells transfected with siRNA, then VP16 (10 μM)
Protocol: (§3) The siRNA oligo targeting RPS27L (SEQ ID NO: 1: ggttgctacaagattacta was purchased from Proligo, and transfection was conducted using Lipofectamine 2000 (Invitrogen) according to the manufacturer's information. To generate stable knock-down cell lines, the siRNA sequences were cloned into the pSIREN-RetroQ retroviral expression vector (BD Bioscience) according to the manufacturer's instruction. Virally infected cells were selected in a medium containing 2 μg/ml puromycin and individual drug-resistant clones were collected, pooled and expanded.
(§4) All RT-PCR was performed using the Titanium One Step RT-PCR Kit (BD Clontech).

RPS27 = experiment: Specificity of RPS27L siRNA, RT-PCR of RPS27; conditions: HCT116 cells transfected with siRNA, then VP16 (10 μM)
Protocol: as §3, §4

HCT116 cells [4] = experiment: Cell cycle and apoptosis analysis by flow cytometry (sub-G1 DNA content)
Protocol: (§5) Cells cycle analysis was performed by DNA content quantification. The cells were fixed with 70% ethanol and stained with propidium iodide (50 μg/ml) staining. The stained cells were analyzed by FACScalibur (BD Bioscience). For the BrdU incorporation assay and mitochondrial membrane potential detection, the BrdU Flow Kit and JC-1 staining kit (both from BD Bioscience) were used, respectively, following the instruction manual. Stained cells were analyzed by FACScalibur (BD Bioscience) and quantified by using CellQuest software (BD Bioscience).

HCT116 cells [5] = experiment: JC-1 staining, mitochondrial membrane potential by flow cytometry; conditions: RPS27L shRNA HCT116 cells, ADR treatment
Protocol: To further define the nature of this cell death response the inventors used another assay, namely flow cytometric detection of cells stained with JC-1. The JC-1-staining identifies cell death events as a result of loss of mitochondria membrane potential (ΔΨm).
as §5

RPS27L mRNA = experiment: RT-PCR of RPS27L mRNA after drug treatment of HCT116 cells; conditions: p53 wild-type HCT116 cells; ADR (1 μM) or 5-FU (375 μM); not in p53 null cells
Excerpt: FIG. 1A depicts the microarray analysis showing a set of genes whose expression was induced by the DNA damaging agents adriamycin (ADR) and 5-fluorouracil (5-FU) in p53 wild-type HCT116 cells (human colorectal carcinoma cell line containing wild type p53) but not in the p53 null counterpart. In both treatments, RPS27L, together with bona fide p53 targets such as cdkn1a (encodes p21), Pmaid (encodes Noxa) and ccd3 (encodes Puma), was unregulated in a p53-dependent manner. To validate the microarray data, RT-PCR analysis was performed (FIG. 1B).
The human colon carcinoma cell line HCT116 and its p53 knock-out derivate cells were kindly provided by Dr. Bert Vogelstein. HCT116 cells can also be purchased under the ATCC number: CCL 247. The human osteosarcoma cell lines U2OS and Saos-2 can be purchased under the following ATCC numbers: U2OS, ATCC HTB-96; Saos-2, ATCC HTB-85 and SH-SY5Y, ATCC CRL-2266. Cells were grown in DMEM supplemented with 10% fetal bovine serum and penicillin-streptomycin (Invitrogen). Adriamycin, etoposide phosphate (VP16®) and 5-fluorouracil were purchased from Sigma-Aldrich.
as §4

## COc1cc([C@@H]2c3cc4c(cc3[C@@H](O[C@@H]3O[C@@H]5CO[C@@H](C)O[C@H]5[C@H](O)[C@H]3O)[C@H]3COC(=O)[C@H]23)OCO4)cc(OC)c1OP(=O)(O)O [etoposide phosphate (VP16®), etoposide phosphate]
HCT116 cells [1]; HCT116 cells, VP16 (20 μM)
  DSB foci (γ-H2AX staining) after treatment: prominent DSB foci
HCT116 cells [1]; RPS27L-depleted HCT116 cells, after VP16 removal
  γ-H2AX staining after VP16 removal: sustained γ-H2AX staining
HCT116 cells [1]; control HCT116 cells, by 16 hours after VP16 removal
  γ-H2AX staining after VP16 removal: almost undetectable
RPS27L protein [2]
  RPS27L protein level: p53-dependent upregulation of RPS27L protein

## COc1ccc(C2=N[C@@H](c3ccc(Cl)cc3)[C@@H](c3ccc(Cl)cc3)N2C(=O)N2CCNC(=O)C2)c(OC(C)C)c1 [nutlin-3]
RPS27L protein [3]
  RPS27L protein level: increased RPS27L protein levels
p53 and p21
  p53 and p21 protein: accumulation of p53 and p21

## RPS27L siRNA: siRNA oligo targeting RPS27L, SEQ ID NO: 1: ggttgctacaagattacta, purchased from Proligo (GGTTGCTACAAGATTACTA; listed as DNA, chemistry not given here)
RPS27L
  RPS27L expression (mRNA): nearly completely ablated
RPS27
  effect on closely-related RPS27 (mRNA): no effect
HCT116 cells [4]; HCT116 cells, transient siRNA transfection, then ADR (1 μM) 24 h
  cell death (sub-G1 DNA content): marked increase in cell death
HCT116 cells [4]; HCT116 cells, transient siRNA transfection, then etoposide phosphate (VP16) (10 μM) 24 h
  cell death (sub-G1 DNA content): marked increase in cell death
HCT116 cells [4]; p53 null HCT116 cells, transient siRNA transfection, then ADR or VP16
  cell death (sub-G1 DNA content): not in p53 null counterparts

## RPS27L shRNA: short hairpin of SEQ ID NO: 1 to deplete RPS27L, stably expressed in HCT116 from pSIREN-RetroQ retroviral vector (guide GGTTGCTACAAGATTACTA)
HCT116 cells [5]
  percentage of cells with lower membrane potential (ΔΨm): 33.5%
HCT116 cells [4]; p53 wild-type HCT116 stably expressing RPS27L shRNA, ADR (1 μM) 48 h
  cell death (sub-G1 DNA content): marked cell death

## O=c1[nH]cc(F)c(=O)[nH]1 [5-FU, 5-fluorouracil]
RPS27L protein [3]
  RPS27L protein level: downregulated
RPS27L protein [2]
  RPS27L protein level: downregulation
p53 and p21
  p53 and p21 protein: increased p21 protein expression
RPS27L mRNA
  RPS27L mRNA: induced
HCT116 cells [4]; HCT116 p53+/+ and p53−/−, ADR (1 μM) or 5-FU (375 μM) for 48 h
  cell cycle and apoptosis response: p53-dependent apoptosis

From patent publication US20090137517A1, “SENSITIZING A CELL TO CANCER TREATMENT BY MODULATING THE ACTIVITY OF A NUCLEIC ACID ENCODING RPS27L PROTEIN” (Agency for Science, Technology and Research, priority 2006, published 2009)
